Test results from patent publication US4061637A, “Certain 4-aryl-5-(4-phenylpiperazino)alkyl-4-thiazolin-2-ones” (priority 1974, dated 1977).
Structures can show the parent of a compound that is named as a salt. Where two headings read alike, the source gives them in different places.

Key:
[1] = Inhibition of spontaneous motility in the mouse; assay type: in vivo; conditions: for ED50: po, 0.5 h, read-out: Spontaneous motility inhibition mouse ED50
Description: This is evaluated by an actophotometric method, which consists of placing the mice, 30 minutes after oral treatment with the drug or the carrier, in a cage provided with a photoelectric cell counter and counting the number of times the photoelectric cell is passed during a 10 minute stay.

[2] = Cataleptic activity in the mouse; assay type: in vivo; conditions: for ED50: po, read-out: Cataleptic activity mouse ED50
[3] = Pinching the tail of the mouse (systemic analgesic activity); assay type: in vivo; conditions: po, 0.5 h; for inhibition in vivo at 200 mg/kg: 200 mg/kg os; for inhibition in vivo at 100 mg/kg: 100 mg/kg os
Description: To evaluate the analgesic activity, the method described by Bianchi and colleagues (Brit. J. Pharmacol., 9, 280, 1954) was followed which consists of applying an arterial pincer to the base of the tail in animals treated orally 30 minutes previously with the drug under examination, observing that the control animals react to the pain by squealing.

[4] = Carrageen oedema in the conscious rat (anti-inflammatory activity); assay type: in vivo; conditions: for ED30: 1 h, ip, one hour before carrageen, read-out: Anti-inflammatory activity carrageenin oedema rat ED30
Description: Anti-inflammatory activity was evaluated by the method of Winter and colleagues (Proc. Soc. Exp. Biol., 111, 544, 1962) by endoperitoneally injecting the product under examination one hour before inducing oedema by injecting 0.05 ml. of a 1% suspension of carrageen (intradermally into the plantar portion of a rear paw).
The difference between the volume of the paw determined plethysmographically one hour before and three hours after the carrageen gives a quantitative estimate of the activity of the product tested. Where possible, the ED30 was calculated.

nor-adrenalin = assay: Antagonism towards a lethal dose of nor-adrenalin in the rat (α-adrenolytic activity); assay type: in vivo; conditions: for ED50: po, 1 h, read-out: α-adrenolytic activity lethal NA rat ED50
Description: Antagonism towards a lethal dose of nor-adrenalin in the rat
The animals are treated with a dose of nor-adrenalin (0.5 mg/kg) which is 100% lethal in animals. The activity is calculated by the number of animals protected from death by prior administration of the drug under examination one hour before the agonist. Where possible the ED50 was calculated.

[5] = Antagonism towards electric shock convulsions in the mouse; assay type: in vivo; conditions: po, 0.5 h, read-out: Anti-convulsion activity, electric shock, mouse, % att.; for inhibition in vivo at 200 mg/kg: 200 mg/kg os; for inhibition in vivo at 100 mg/kg: 100 mg/kg os
Description: This is evaluated by observing the protection given by pretreatment with the drug (30 minutes) against tonic convulsions obtained by applying a 35 volt current to the eyeballs.

[6] = Ulcers by constriction (stress) in the rat; assay type: in vivo; conditions: 4 h; for responders at 30 mg/kg / responders at 10 mg/kg: read-out: Anti-ulcer activity, ulcers by stress in the rat, Protected rats %; for inhibition in vivo at 30 mg/kg / inhibition in vivo at 10 mg/kg: read-out: Anti-ulcer activity, ulcers by stress in the rat, Reduction in ulcers %; for responders at 10 mg/kg / inhibition in vivo at 10 mg/kg: 10 mg/kg ip
Description: The method described by Rossi and colleagues (Compt. Rend. Soc. Biol., 150, 2124, 1956) was followed in which the formation of gastric ulcers is induced by immobilising the animal, in a state of fast for 48 hours, in a net for a period of 4 hours.
The protection given by treatment with the drug under examination before the beginning of the constriction period is evaluated by counting both the ulcers and the number of subjects without ulcers.

[7] = Acute toxicity under LD50 mouse; conditions: in vivo, ip
[8] = mouse, os, 30 minutes after treatment
[9] = rat, os, one hour before nor-adrenalin 0.5 mg/kg

Structure (SMILES) | ED50 [1, 8] | ED50 ([2]; mouse, os) | inhibition in vivo at 200 mg/kg ([3]; mouse, 30 minutes) | Anti-inflammatory activity carrageenin oedema rat, percentage activity (ED30 lacking) ([4]; 200 mg/kg ip) | ED50 (nor-adrenalin; Rattus norvegicus) | inhibition in vivo at 200 mg/kg ([5]; mouse, 35 volt) | responders at 30 mg/kg ([6]; rat, 30 mg/kg ip) | inhibition in vivo at 30 mg/kg ([6]; rat, 30 mg/kg ip) | LD50 [7] | ED30 [4] | responders at 10 mg/kg ([6]; rat) | inhibition in vivo at 10 mg/kg ([6]; rat) | also measured
O=c1[nH]c(-c2ccc(F)cc2)c(CCN2CCN(c3ccccc3)CC2)s1 [LR 599, 4-p-fluorophenyl-5-β-(N'-phenylpiperazino)ethyl-4-thiazolin-2-one] | 69.2 mg/kg | 200 mg/kg | 30% | 20% | 45 mg/kg | 0% | 20% | 48% | > 1000 mg/kg | – | – | – | –
O=c1[nH]c(-c2ccc(F)cc2)c(CCN2CCC(O)(c3ccc(Cl)cc3)CC2)s1 [LR 613, 4-p-fluorophenyl-5-β-[(4'-hydroxy-4'-p-chlorophenyl)-piperidino]-ethyl-4-thiazolin-2-one hydrochloride] | – | – | – | – | – | – | – | – | 300 mg/kg | – | – | – | ED50 ([1]; Mus musculus): 18 mg/kg; ED50 ([2]; Mus musculus): 32.4 mg/kg; inhibition in vivo at 60 mg/kg ([3]; Mus musculus, read-out: Systemic analgesic activity, tail pinching in mouse, %): 10%; Anti-inflammatory activity carrageenin oedema rat, percentage activity (ED30 lacking) ([4]; 60 mg/kg ip): 15.2%; α-adrenolytic activity lethal NA rat, percentage activity (ED50 lacking) (nor-adrenalin; rat, 15 mg/kg os): 20%; inhibition in vivo at 60 mg/kg ([5]; Mus musculus): 10%; responders at 30 mg/kg ([6]; Rattus norvegicus, ip): 60%; inhibition in vivo at 30 mg/kg ([6]; Rattus norvegicus, ip): 80%
CN(CCc1ccccc1)CCc1sc(=O)[nH]c1-c1ccc(F)cc1.O=C(O)/C=C\C(=O)O [LR 616, 4-p-fluorophenyl-5-β-(N-methylphenylethylamino)ethyl-4-thiazolin-2-one maleate] | 40 mg/kg | – | – | – | – | – | 10% | 0% | 225 mg/kg | 54 mg/kg | – | – | Cataleptic activity mouse, percentage activity (ED50 lacking) ([2]; mouse, 40 mg/kg os): 0%; inhibition in vivo at 40 mg/kg ([3]; mouse, 40 mg/kg os, 30 minutes): 0%; ED50 (nor-adrenalin; [9]): 5.5 mg/kg; inhibition in vivo at 40 mg/kg ([5]; mouse, 40 mg/kg os, 35 volt): 0%
CN(CCc1ccccc1)CCc1sc(=O)[nH]c1-c1ccc(Cl)cc1.O=C(O)/C=C\C(=O)O [LR 628, 4-p-chlorophenyl-5-β-(N-methylphenylethylamino)ethyl-4-thiazolin-2-one maleate] | 100 mg/kg | – | – | – | – | – | 0% | 0% | 400 mg/kg | 35 mg/kg | – | – | inhibition in vivo at 100 mg/kg ([3]; mouse, 30 minutes): 0%; ED50 (nor-adrenalin; [9]): 8 mg/kg; inhibition in vivo at 100 mg/kg ([5]; mouse, 35 volt): 0%
CN(CCc1ccccc1)CCc1sc(=O)[nH]c1-c1ccccc1.O=C(O)/C=C\C(=O)O [LR 630, 4-phenyl-5-β-(N-methylphenylethylamino)ethyl-4-thiazolin-2-one maleate] | 60 mg/kg | 180 mg/kg | – | – | – | – | 10% | 0% | 750 mg/kg | 145 mg/kg | – | – | inhibition in vivo at 180 mg/kg ([3]; mouse, 180 mg/kg os, 30 minutes): 0%; ED50 (nor-adrenalin; [9]): 16 mg/kg; inhibition in vivo at 180 mg/kg ([5]; mouse, 180 mg/kg os, 35 volt): 10%
O=c1[nH]c(-c2ccccc2)c(CCN2CCN(c3ccccc3)CC2)s1 [LR 637, 4-phenyl-5-β-(N'-phenylpiperazino)ethyl-4-thiazolin-2-one] | 200 mg/kg | 200 mg/kg | 30% | 11.6% | 18 mg/kg | 20% | – | – | 1000 mg/kg | – | 57% | 86% | –
O=c1[nH]c(-c2ccc(Cl)cc2)c(CCN2CCN(c3ccccc3)CC2)s1 [LR 638, 4-p-chlorophenyl-5-β-(N'-phenylpiperazino)ethyl-4-thiazolin-2-one] | 200 mg/kg | 200 mg/kg | 10% | 14% | – | 10% | – | – | > 1000 mg/kg | – | 60% | 63% | α-adrenolytic activity lethal NA rat, percentage activity (ED50 lacking) (nor-adrenalin; rat, 50 mg/kg os): 0%
COc1ccc(-c2[nH]c(=O)sc2CCN2CCN(c3ccccc3)CC2)cc1 [LR 639, 4-p-methoxyphenyl-5-β-(N'-phenylpiperazino)ethyl-4-thiazolin-2-one] | 33 mg/kg | 88 mg/kg | 0% | 8.1% | 45 mg/kg | 0% | – | – | > 1000 mg/kg | – | 30% | 28% | –
O=c1[nH]c(-c2ccc(F)cc2)c(CCN2CCC3(CC2)OCCCCO3)s1 [LR 648, 4-p-fluorophenyl-5-β-[7,12-dioxa-3-azaspiro[5,6]-dodec-3-yl]-ethyl-4-thiazolin-2-one hydrochloride] | – | – | – | – | – | – | – | – | 125 mg/kg | – | 10% | 32% | Spontaneous motility inhibition mouse, percentage activity (ED50 lacking) ([1]; mouse, 26 mg/kg os): 20%; inhibition in vivo at 26 mg/kg ([3]; mouse, 26 mg/kg os, 30 minutes): 0%; α-adrenolytic activity lethal NA rat, percentage activity (ED50 lacking) (nor-adrenalin; rat, 7 mg/kg os): 0%; inhibition in vivo at 26 mg/kg ([5]; mouse, 26 mg/kg os, 35 volt): 20%
Cn1c(-c2ccc(F)cc2)c(CCN2CCN(c3ccccc3)CC2)sc1=O [LR 652, 3-methyl-4-p-fluorophenyl-5-β-(N'-phenylpiperazino)-ethyl-4-thiazolin-2-one] | 23 mg/kg | 52.4 mg/kg | 0% | – | 13.3 mg/kg | 40% | 50% | 68% | > 1000 mg/kg | 163 mg/kg | – | – | –
CC(=O)n1c(-c2ccc(F)cc2)c(CCN2CCN(c3ccccc3)CC2)sc1=O [LR 653, 3-acetyl-4-p-fluorophenyl-5-β-(N'-phenylpiperazino)-ethyl-4-thiazolin-2-one] | 11.6 mg/kg | 80 mg/kg | – | – | 12.8 mg/kg | – | – | – | 420 mg/kg | – | – | – | inhibition in vivo at 100 mg/kg ([3]; mouse, 30 minutes): 20%; Anti-inflammatory activity carrageenin oedema rat, percentage activity (ED30 lacking) ([4]; 100 mg/kg ip): 25.4%; inhibition in vivo at 100 mg/kg ([5]; mouse, 35 volt): 20%
O=c1[nH]c(-c2ccc(Cl)cc2)c(CN2CCCCC2)s1 [LR 659, 4-p-chlorophenyl-5-piperidinomethyl-4-thiazolin-2-one] | – | – | 0% | – | – | 30% | – | – | > 1000 mg/kg | – | 50% | 50% | –
O=c1[nH]c(-c2ccc(Cl)cc2)c(CN2CCN(c3ccccc3)CC2)s1 [LR 660, 4-p-chlorophenyl-5-(N'-phenylpiperazino)methyl-4-thiazolin-2-one] | 100 mg/kg | – | – | – | – | 20% | – | – | > 1000 mg/kg | – | 50% | 50% | –
